According to ChEMBL document CHEMBL2203069, “Synthesis and structure-activity relationships of a novel series of pyrimidines as potent inhibitors of TBK1/IKKε kinases” (Bioorg Med Chem Lett, 2012):

What was measured:
[1] = target: T1, Serine/threonine-protein kinase TBK1 (Homo sapiens, UniProt Q9UHD2); assay: Inhibition of TBK1 by radiometry
T1 sequence (Q9UHD2 whole entry): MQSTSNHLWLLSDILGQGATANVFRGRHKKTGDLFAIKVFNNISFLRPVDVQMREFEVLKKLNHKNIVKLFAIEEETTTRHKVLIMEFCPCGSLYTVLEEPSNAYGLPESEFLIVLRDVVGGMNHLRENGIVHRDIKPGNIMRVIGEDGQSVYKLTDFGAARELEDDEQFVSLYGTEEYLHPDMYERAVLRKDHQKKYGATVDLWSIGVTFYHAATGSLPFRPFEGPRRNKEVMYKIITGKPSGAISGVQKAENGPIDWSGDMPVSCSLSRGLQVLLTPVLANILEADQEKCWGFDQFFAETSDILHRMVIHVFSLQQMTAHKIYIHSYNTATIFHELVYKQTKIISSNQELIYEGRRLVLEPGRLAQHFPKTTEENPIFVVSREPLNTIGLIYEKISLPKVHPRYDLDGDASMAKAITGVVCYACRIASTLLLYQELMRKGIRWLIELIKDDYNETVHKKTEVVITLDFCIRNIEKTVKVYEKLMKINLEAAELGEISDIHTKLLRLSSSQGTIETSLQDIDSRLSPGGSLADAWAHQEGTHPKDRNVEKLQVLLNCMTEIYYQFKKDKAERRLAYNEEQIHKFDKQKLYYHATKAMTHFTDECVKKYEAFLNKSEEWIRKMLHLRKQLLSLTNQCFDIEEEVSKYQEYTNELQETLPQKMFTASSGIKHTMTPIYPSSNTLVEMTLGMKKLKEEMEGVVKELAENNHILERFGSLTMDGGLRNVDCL

[2] = target: T2, Serine/threonine-protein kinase TBK1 (Mus musculus, UniProt Q9WUN2); assay: Inhibition of TBK1-mediated RANTES release in LPS-stimulated mouse RAW264.7 cells compound incubated for 30 mins prior LPS challenge measured after 6 hrs by ELISA; type: cell-based
T2 sequence (Q9WUN2 whole entry): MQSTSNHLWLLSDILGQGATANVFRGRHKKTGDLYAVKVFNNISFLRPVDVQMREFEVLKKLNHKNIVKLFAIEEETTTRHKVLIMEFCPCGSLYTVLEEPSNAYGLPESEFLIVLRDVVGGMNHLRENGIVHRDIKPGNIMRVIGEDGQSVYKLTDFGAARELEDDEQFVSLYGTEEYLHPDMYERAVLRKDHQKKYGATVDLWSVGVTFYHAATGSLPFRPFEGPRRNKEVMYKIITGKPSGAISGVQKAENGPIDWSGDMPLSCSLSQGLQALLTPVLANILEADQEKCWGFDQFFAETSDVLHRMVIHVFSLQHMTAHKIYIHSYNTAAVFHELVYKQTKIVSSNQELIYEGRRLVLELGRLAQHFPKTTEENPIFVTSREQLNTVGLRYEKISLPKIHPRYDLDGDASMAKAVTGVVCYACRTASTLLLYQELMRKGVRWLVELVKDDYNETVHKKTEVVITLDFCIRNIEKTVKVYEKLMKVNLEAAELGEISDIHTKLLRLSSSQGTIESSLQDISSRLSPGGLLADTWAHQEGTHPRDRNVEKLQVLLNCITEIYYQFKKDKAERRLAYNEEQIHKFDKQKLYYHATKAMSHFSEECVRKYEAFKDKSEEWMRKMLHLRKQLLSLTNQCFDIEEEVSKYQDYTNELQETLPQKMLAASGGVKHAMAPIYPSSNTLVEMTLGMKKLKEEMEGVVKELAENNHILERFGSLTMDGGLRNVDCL

[3] = Metabolic stability in human liver microsomes assessed as compound turnover after 40 mins; type: ADME, Microsome; settings: read-out: Drug metabolism
[4] = Metabolic stability in mouse liver microsomes assessed as compound turnover after 30 mins; type: ADME, Microsome; settings: read-out: Drug metabolism
[5] = target: T3, 3-phosphoinositide-dependent protein kinase 1 (Homo sapiens, UniProt O15530); assay: Inhibition of PDK1 by radiometry
T3 sequence (O15530 whole entry): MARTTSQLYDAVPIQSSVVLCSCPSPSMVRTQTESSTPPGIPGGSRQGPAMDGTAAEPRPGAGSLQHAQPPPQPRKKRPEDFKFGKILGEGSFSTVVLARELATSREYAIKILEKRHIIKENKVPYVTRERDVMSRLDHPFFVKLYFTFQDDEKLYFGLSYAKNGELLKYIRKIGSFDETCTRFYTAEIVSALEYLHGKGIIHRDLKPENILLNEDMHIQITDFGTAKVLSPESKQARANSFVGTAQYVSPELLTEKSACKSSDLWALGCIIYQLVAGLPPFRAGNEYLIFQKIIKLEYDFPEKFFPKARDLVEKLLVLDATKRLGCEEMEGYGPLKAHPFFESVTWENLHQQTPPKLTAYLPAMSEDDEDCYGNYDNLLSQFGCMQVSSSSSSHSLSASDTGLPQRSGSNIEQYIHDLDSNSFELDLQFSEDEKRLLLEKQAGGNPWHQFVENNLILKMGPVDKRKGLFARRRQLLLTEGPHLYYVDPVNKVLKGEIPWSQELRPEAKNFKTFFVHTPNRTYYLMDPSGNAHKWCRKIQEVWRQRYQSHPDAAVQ

[6] = Permeability from apical to basolateral side of human Caco2 cells; type: ADME, cell-based; settings: Caco-2, read-out: permeability
[7] = Efflux ratio of permeability from basolateral to apical side to apical to basolateral side in human Caco2 cells; type: ADME, cell-based; settings: Caco-2

Structure (SMILES) | IC50 [1] [µM] | IC50 ([2]; read-out: IC50) [µM] | metabolised at 40 min [3] [%] | metabolised at 0.5 h [4] [%] | further results
CN1CCC(c2ccc(Nc3ncc(C4CC4)c(NCCCNC(=O)C4CCC4)n3)cc2)CC1 | 0.008 | 0.66 | 23 | 30 | 
O=C(NCCCNc1nc(Nc2cccc(F)c2)ncc1Br)C1CCC1 |  |  |  |  | IC50 [5]: 0.068 µM
O=C(NCCCNc1nc(Nc2ccc(N3CCOCC3)nc2)ncc1C1CC1)C1CCC1 | 0.015 | 0.49 | 15 | 92 | 
CC(=O)N1CCC(C(=O)NCCCNc2nc(Nc3cccc(F)c3)ncc2Br)CC1 | 0.43 |  |  |  | 
O=C(NCCCNc1nc(Nc2cnn(C3CCC3)c2)ncc1C1CC1)C1CCC1 | 0.002 | 0.22 | 61 | 61 | 
O=C(NCCCNc1nc(Nc2cccnc2)ncc1C1CC1)C1CCC1 | 0.013 | > 1 |  |  | 
CC(C)c1cnc(Nc2cccc(F)c2)nc1NCCCNC(=O)C1CCC1 | > 1 |  |  |  | 
Cn1ncc2cc(Nc3ncc(C4CC4)c(NCCCNC(=O)C4CCC4)n3)ccc21 | 0.016 | 0.38 | 42 | 40 | 
O=C(NCCCNc1nc(Nc2cccc(F)c2)ncc1CC1CC1)C1CCC1 | > 1 |  |  |  | 
CCn1cc(Nc2ncc(C3CC3)c(NCCCNC(=O)C3CCC3)n2)cn1 | 0.007 | 0.14 | 37 | 54 | 
O=C(NCCCNc1nc(Nc2cccc(NC(=O)N3CCCC3)c2)ncc1Br)c1cccs1 | 0.006 |  |  |  | 
O=C(NCCCNc1nc(Nc2ccc(-n3cncn3)cc2)ncc1C1CC1)C1CCC1 | 0.003 | 0.15 | 23 | 35 | Papp A→B [6]: 10 ×10⁻⁶ cm/s; efflux ratio [7]: 3
O=C(NCCCNc1nc(Nc2cnn(C3CCCC3)c2)ncc1C1CC1)C1CCC1 | 0.004 | 0.093 | 67 | 59 | 
Cn1ccc(Nc2ncc(C3CC3)c(NCCCNC(=O)C3CCC3)n2)n1 | > 1 |  |  |  | 
O=C(NCCCNc1nc(Nc2cccc(F)c2)ncc1Br)c1cccc(N2CCOCC2)c1 | 3.6 |  |  |  | 
O=C(NCCCNc1nc(Nc2cccc(F)c2)ncc1Br)c1ccc(C(F)(F)F)cc1 | 0.45 |  |  |  | 
O=C(NCCCNc1nc(Nc2cccc(F)c2)ncc1C1CC1)c1cccs1 | 0.11 |  |  |  | 
Cc1nn(C)c2cc(Nc3ncc(C4CC4)c(NCCCNC(=O)C4CCC4)n3)ccc12 | 0.007 | 0.09 | 86 | 41 | 
O=C(NCCCNc1nc(Nc2cccc(Cn3cncn3)c2)ncc1C1CC1)C1CCC1 | 0.003 | 0.088 | 63 |  | 
O=C(NCCCNc1nc(Nc2cncnc2)ncc1C1CC1)C1CCC1 | 3.2 |  |  |  | 

Structure (SMILES) | IC50 [1] [µM] | IC50 ([2]; read-out: IC50) [µM] | metabolised at 40 min [3] [%] | metabolised at 0.5 h [4] [%] | further results
CCc1cnc(Nc2cccc(F)c2)nc1NCCCNC(=O)C1CCC1 | 0.063 |  |  |  | 
CN1CCN(C(=O)c2ccc(Nc3ncc(C4CC4)c(NCCCNC(=O)C4CCC4)n3)cc2)CC1 | 0.002 |  |  |  | IC50 ([2]; raw264.7): Not Active
O=C(NCCCNc1nc(Nc2cnn(C3CC3)c2)ncc1C1CC1)C1CCC1 | 0.01 | 0.13 | 32 | 24 | 
CC(C)N1CCC(n2cc(Nc3ncc(C4CC4)c(NCCCNC(=O)C4CCC4)n3)cn2)CC1 | 0.007 | 3 | 24 | 42 | Papp A→B [6]: 1.4 ×10⁻⁶ cm/s; efflux ratio [7]: 16
O=C(NCCCNc1nc(Nc2ccc3c(c2)CN(C2CC2)CC3)ncc1C1CC1)C1CCC1 | 0.007 | 0.57 | 91 | 86 | 
CN1CCC(C(=O)NCCCNc2nc(Nc3cccc(F)c3)ncc2Br)CC1 | 4.3 |  |  |  | 
COCCC(=O)NCCCNc1nc(Nc2cccc(F)c2)ncc1Br | 0.06 |  |  |  | 
O=C(NCCCNc1nc(Nc2cnn(C3CCOCC3)c2)ncc1C1CC1)C1CCC1 | 0.002 | 0.28 | 25 | 33 | 
O=C(NCCCNc1nc(Nc2ccccc2F)ncc1C1CC1)c1cccs1 | 0.82 |  |  |  | 
O=C(CCc1ccccc1)NCCCNc1nc(Nc2cccc(F)c2)ncc1Br | 0.56 |  |  |  | 
CN(C)Cc1ccc(Nc2ncc(C3CC3)c(NCCCNC(=O)C3CCC3)n2)cc1 | 0.006 | 0.55 |  |  | Papp A→B [6]: 1 ×10⁻⁶ cm/s; efflux ratio [7]: 56
O=C(NCCCNc1nc(Nc2cccc(-c3cnco3)c2)ncc1C1CC1)C1CCC1 | 0.011 | 0.56 | 26 | 34 | 
O=C(NCCCNc1nc(Nc2ccc(CN3CCCCC3)nc2)ncc1C1CC1)C1CCC1 | 0.009 | 1.2 |  |  | Papp A→B [6]: 0.1 ×10⁻⁶ cm/s; efflux ratio [7]: 780
CC(C)n1cc(Nc2ncc(C3CC3)c(NCCCNC(=O)C3CCC3)n2)cn1 | 0.004 | 0.081 | 61 | 41 | 
O=C(NCCCNc1nc(Nc2cccc(N3CCOCC3)c2)ncc1C1CC1)C1CCC1 | 0.028 | 0.58 |  |  | 
O=C(NCCCNc1nc(NCc2ccc(F)cc2)ncc1C1CC1)c1cccs1 | > 10 |  |  |  | 
O=C(NCCCNc1nc(Nc2cccc(F)c2)ncc1Br)c1cnccn1 | 0.022 |  |  |  | 
O=C(NCCCNc1nc(NC2CCCCC2)ncc1C1CC1)c1cccs1 | > 10 |  |  |  | 
O=C(NCCCNc1nc(Nc2cnn(CCN3CCOCC3)c2)ncc1C1CC1)C1CCC1 | 0.009 | 9 | 46 | 68 | 
